Experimental data published in patent publication US20230255943A1, “MMP-9 AND MMP-12 INHIBITION FOR TREATING SPINAL CORD INJURY OR RELATED INJURY TO NEUROLOGICAL TISSUE” (The University of Birmingham, priority 2020, published 2023).

How the values were obtained:
IL-1β, TNF-α and IL-6 = test: Proinflammatory pain markers after CC SCI in mice; format: in vivo, mouse; conditions: oral gavage immediately after injury
Protocol: CC SCI was administered at the T7-T8 vertebral level after exposure of T6-T9 by laminectomy. The aneurysm clip applicator was oriented in a bilateral direction and an aneurysm clip with a closing force of 24 g was applied extradurally for 60 s, as described previously (A. S. Rivlin, C. H. Tator, Effect of duration of acute spinal cord compression in a new acute cord injury model in the rat. Surg Neurol 10, 38-43 (1978):E. Esposito, I. Paterniti, E. Mazzon, T. Genovese, M. Galuppo, R. Meli, P. Bramanti, S. Cuzzocrea, MK801 attenuates secondary injury in a mouse experimental compression model of spinal cord trauma. BMC Neurosci 12, 31 (2011)).
The urinary bladders were manually emptied twice daily until bladder function was regained. Adult male C57BL6 mice (25-30 g) (Charles River, Margate, UK) were randomly allocated to either: (1), Sham (control; laminectomy but no CC SCI); (2), CC SCI+vehicle; (3), CC SCI+200 mg/kg AZD1236 (oral); (4), CC SCI+5 mg/kg AZD1236 (it). All experiments were performed with n=6 mice/group and repeated on 3 independent occasions (total=18 mice/group/test).
The lesion site+5 mm either side (DC and CC SCI, n=6 mice/rats/group, 2 independent repeats (total n=12 mice/rats/group)) was dissected and rapidly frozen in liquid N2 and stored at −80° C. until required. […] The levels of mRNA of MMP-9, MMP-12, IL-1β, TNF-α and IL-6 were determined using pre-validated mouse primer sequences from complimentary DNA prepared from extracted mRNA and qRT-PCR was performed using a LightCycler PCR machine (Roche, Burgess Hill, UK) (M. L. Read, S. Mir, R. Spice, R. J. Seabright, E. L. Suggate, Z. Ahmed, M. Berry, A. Logan, Profiling RNA interference (RNAi)-mediated toxicity in neural cultures for effective short interfering RNA design. J Gene Med 11, 523-534 (2009)). […] Fold changes were computed using the ΔΔCt method (M. L. Read, S. Mir, R. Spice, R. J. Seabright, E. L. Suggate, Z. Ahmed, M. Berry, A. Logan, Profiling RNA interference (RNAi)-mediated toxicity in neural cultures for effective short interfering RNA design. J Gene Med 11, 523-534 (2009).

[1] = system: mice with DC crush injury; test: Immunohistochemistry of CD11b, CD68 and GFAP at lesion site; format: in vivo, mouse; conditions: immediate or delayed by 24 h
From the text: After killing animals by exposure to rising concentrations of CO2, mice were intracardially perfused with 4% formaldehyde (TAAB Laboratories, Berkshire, UK) in 0.1M phosphate buffered saline (PBS). The lesion site+5 mm either side were dissected out, post-fixed in 4% formaldehyde and subjected to a graded series of sucrose solutions for cryoprotection. Spinal cords were blocked in OCT mounting compound (TAAB laboratories), sectioned longitudinally at 15 μm-thick using a cryostat (Brights Instruments, Huntingdon, UK) before being collected on charged glass slides (ThermoFisher Scientific, Loughborough, UK) and kept at −20° C. until required. Slides were numbered consecutively and sections from the middle of the lesion site were chosen for all immunohistochemical analyses, as described by previously (Surey S, Berry M, Logan A, Bicknell R, Ahmed Z. Differential cavitation, angiogenesis and wound-healing responses in injured mouse and rat spinal cords. Neuroscience 2014; 275: 62-80).
Fluorescent immunohistochemistry was performed as described previously (S. Surey, M. Berry, A. Logan, R. Bicknell, Z. Ahmed, Differential cavitation, angiogenesis and wound-healing responses in injured mouse and rat spinal cords. Neuroscience 275, 62-80 (2014)). […] Laminin was detected at 4 weeks after DC injury and treatment using a rabbit polyclonal anti-laminin primary antibody (ab11575; 1:400 dilution, Abcam). Macrophages were detected with a rabbit polyclonal anti-CD68 antibody (ab1525212; 1:500 dilution, Abcam); microglia were detected using a rabbit polyclonal antibody to CD11b (ab128797, 1:500 dilution, Abcam); GFAP was detected using a polyclonal anti-GFAP antibody (SAB5700611, 1:400 dilution, Sigma) were all detected at 10 days after DC injury and treatment. Semaphorin-3A (Sema-3A) and chondroitin sulphate proteoglycan (CSPG) was detected using monoclonal anti-CS-56 antibody (C8035; 1:200 dilution, Sigma) at 7 days after injury. […] CTB labelled axons in the mouse were detected using a goat polyclonal anti-CTB antibody (#703; 1:1000 dilution, List Biological Labs) at 6 weeks after DC injury. […]

C[C@]1(CS(=O)(=O)N2CC=C(C#Cc3cnc(C4CC4)nc3)CC2)NC(=O)NC1=O [AZD1236]
proinflammatory pain markers after CC injury, comparison with pain medications (FIG. 7) (IL-1β, TNF-α and IL-6): significantly attenuates
CD11b immunoreactivity at the lesion site [1]: significantly reduced
CD68 immunoreactivity at the lesion site [1]: significantly reduced
GFAP+ immunoreactivity at the lesion site [1]: significantly reduced
